Laboratory results published in patent US12077503B2, “Substituted cyclic amides and their use as herbicides” (FMC CORPORATION, priority 2015, dated 2024).

What was measured:
Format in all cases: in vivo
Kochia (Kochia scoparia) [1] = test: Test A postemergence; details: Bassia scoparia, post-emergence, 240 h, 125 g ai/ha, postemergence; visual injury after approximately 10 d; 0 to 100 scale (0 no effect, 100 complete control); read-out: Plant response rating, Kochia
Summary of the method: (§1)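 Seeds sprayed preemergence with a directed soil spray, or plants at 2 to 10 cm height and one- to two-leaf stage sprayed postemergence, with test chemicals in a non-phytotoxic solvent mixture containing surfactant, in loam soil–sand blend. Injury rated visually against untreated controls after about 10 d in greenhouse, 0 (no effect) to 100 (complete control).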

[2] = system: giant foxtail (Setaria faberii); test: Test A postemergence; details: Setaria faberi, post-emergence, 240 h, 125 g ai/ha, postemergence; visual injury after approximately 10 d; 0 to 100 scale (0 no effect, 100 complete control); read-out: Plant response rating, Foxtail, Giant
Summary of the method: as §1

[3] = system: pigweed (Amaranthus retroflexus); test: Test A postemergence; details: Amaranthus retroflexus, post-emergence, 240 h, 125 g ai/ha, postemergence; visual injury after approximately 10 d; 0 to 100 scale (0 no effect, 100 complete control); read-out: Plant response rating, Pigweed
Summary of the method: as §1

[4] = system: ryegrass, Italian (Italian ryegrass, Lolium multiflorum); test: Test A postemergence; details: Lolium multiflorum, post-emergence, 240 h, 125 g ai/ha, postemergence; visual injury after approximately 10 d; 0 to 100 scale (0 no effect, 100 complete control); read-out: Plant response rating, Ryegrass, Italian
Summary of the method: as §1

[5] = system: sedge, umbrella (small-flower umbrella sedge, Cyperus difformis); test: Test B flooded paddy test; details: Cyperus difformis, Flood, 250 g ai/ha; scale of 0 to 100 where 0 is no effect and 100 is complete control; read-out: Sedge, Umbrella plant response rating
Summary of the method: (§2)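 Evaluation by eye, against controls, occurred 13–15 d post-treatment in a greenhouse, using a 0 (no effect) to 100 (complete control) scale. Application was into the paddy water, 3 cm deep over the soil, on 2-leaf plants.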

[6] = system: barnyardgrass (Echinochloa crus-galli); test: Test B flooded paddy test; details: Echinochloa crus-galli, Flood, 250 g ai/ha; scale of 0 to 100 where 0 is no effect and 100 is complete control; read-out: Barnyardgrass plant response rating
Summary of the method: as §2

rice (Oryra sativa) = test: Test B flooded paddy test; details: Oryza sativa, Flood, 250 g ai/ha; scale of 0 to 100 where 0 is no effect and 100 is complete control; read-out: Rice plant response rating
Summary of the method: as §2

[7] = system: ducksalad (Heteranthera limosa); test: Test B flooded paddy test; details: Heteranthera limosa, Flood, 250 g ai/ha; scale of 0 to 100 where 0 is no effect and 100 is complete control; read-out: Ducksalad plant response rating
Summary of the method: as §2

[8] = system: ragweed (common ragweed, Ambrosia elatior); test: Test A preemergence; details: Ambrosia artemisiifolia, pre-emergence, 240 h, preemergence, read-out: Plant response rating, Ragweed; for pest or weed control at 125 g/ha: 125 g ai/ha, visual rating after approx. 10 d, 0 to 100 scale where 0 is no effect and 100 is complete control; for pest or weed control at 500 g/ha: 500 g ai/ha, 0 to 100 scale, 0 = no effect, 100 = complete control
Summary of the method: as §1

Kochia (Kochia scoparia) [9] = test: Test A preemergence; details: Bassia scoparia, pre-emergence, 240 h, preemergence, read-out: Plant response rating, Kochia; for pest or weed control at 125 g/ha: 125 g ai/ha, visual rating after approx. 10 d, 0 to 100 scale where 0 is no effect and 100 is complete control; for pest or weed control at 500 g/ha: 500 g ai/ha, 0 to 100 scale, 0 = no effect, 100 = complete control
Summary of the method: as §1

[10] = system: giant foxtail (Setaria faberii); test: Test A preemergence; details: Setaria faberi, pre-emergence, 240 h, preemergence, read-out: Plant response rating, Foxtail, Giant; for pest or weed control at 125 g/ha: 125 g ai/ha, visual rating after approx. 10 d, 0 to 100 scale where 0 is no effect and 100 is complete control; for pest or weed control at 500 g/ha: 500 g ai/ha, 0 to 100 scale, 0 = no effect, 100 = complete control
Summary of the method: as §1

[11] = system: pigweed (Amaranthus retroflexus); test: Test A preemergence; details: Amaranthus retroflexus, pre-emergence, 240 h, preemergence, read-out: Plant response rating, Pigweed; for pest or weed control at 125 g/ha: 125 g ai/ha, visual rating after approx. 10 d, 0 to 100 scale where 0 is no effect and 100 is complete control; for pest or weed control at 500 g/ha: 500 g ai/ha, 0 to 100 scale, 0 = no effect, 100 = complete control
[12] = system: barnyardgrass (Echinochloa crus-galli); test: Test A preemergence; details: Echinochloa crus-galli, pre-emergence, 240 h, preemergence, read-out: Plant response rating, Barnyardgrass; for pest or weed control at 125 g/ha: 125 g ai/ha, visual rating after approx. 10 d, 0 to 100 scale where 0 is no effect and 100 is complete control; for pest or weed control at 500 g/ha: 500 g ai/ha, 0 to 100 scale, 0 = no effect, 100 = complete control
Summary of the method: as §1

[13] = system: ryegrass, Italian (Italian ryegrass, Lolium multiflorum); test: Test A preemergence; details: Lolium multiflorum, pre-emergence, 240 h, preemergence, read-out: Plant response rating, Ryegrass, Italian; for pest or weed control at 125 g/ha: 125 g ai/ha, visual rating after approx. 10 d, 0 to 100 scale where 0 is no effect and 100 is complete control; for pest or weed control at 500 g/ha: 500 g ai/ha, 0 to 100 scale, 0 = no effect, 100 = complete control
Summary of the method: as §1

O=C1NC[C@H](c2csc3ccccc23)[C@H]1C(=O)Nc1cccc(F)c1F [Compound 751]
30%: pest or weed control at 125 g/ha [2] | pest or weed control at 250 g/ha (rice (Oryra sativa))
100%: pest or weed control at 250 g/ha [7]
0%: pest or weed control at 125 g/ha (Kochia (Kochia scoparia) [1]) | pest or weed control at 125 g/ha [3] | pest or weed control at 125 g/ha [4] | pest or weed control at 250 g/ha [5] | pest or weed control at 125 g/ha [11] | pest or weed control at 500 g/ha [11] | pest or weed control at 125 g/ha [13]
80%: pest or weed control at 125 g/ha [10]
40%: pest or weed control at 250 g/ha [6] | pest or weed control at 500 g/ha [8]
20%: pest or weed control at 125 g/ha [8] | pest or weed control at 125 g/ha (Kochia (Kochia scoparia) [9]) | pest or weed control at 500 g/ha [13]
90%: pest or weed control at 500 g/ha [10] | pest or weed control at 125 g/ha [12] | pest or weed control at 500 g/ha [12]

CN1C[C@H](c2cc(F)cc(F)c2)[C@@H](C(=O)NC2CCc3ccccc32)C1=O (stereo partly shown) [Compound 755]
0%: pest or weed control at 125 g/ha (Kochia (Kochia scoparia) [1]) | pest or weed control at 125 g/ha [2] | pest or weed control at 125 g/ha [3] | pest or weed control at 125 g/ha [4] | pest or weed control at 250 g/ha [5] | pest or weed control at 250 g/ha [6] | pest or weed control at 250 g/ha (rice (Oryra sativa)) | pest or weed control at 250 g/ha [7] | pest or weed control at 125 g/ha [8] | pest or weed control at 500 g/ha [8] | pest or weed control at 125 g/ha (Kochia (Kochia scoparia) [9]) | pest or weed control at 500 g/ha (Kochia (Kochia scoparia) [9]) | pest or weed control at 125 g/ha [10] | pest or weed control at 500 g/ha [10] | pest or weed control at 125 g/ha [11] | pest or weed control at 500 g/ha [11] | pest or weed control at 125 g/ha [12] | pest or weed control at 500 g/ha [12] | pest or weed control at 125 g/ha [13] | pest or weed control at 500 g/ha [13]

Cc1ccc(NC(=O)[C@H]2C(=O)N(C)C[C@@H]2c2cc(F)cc(F)c2)c(F)c1 [Compound 760]
80%: pest or weed control at 125 g/ha [2] | pest or weed control at 250 g/ha [7]
60%: pest or weed control at 500 g/ha (Kochia (Kochia scoparia) [9])
100%: pest or weed control at 125 g/ha [10] | pest or weed control at 500 g/ha [10] | pest or weed control at 125 g/ha [12] | pest or weed control at 500 g/ha [12]
50%: pest or weed control at 250 g/ha [6]
0%: pest or weed control at 125 g/ha (Kochia (Kochia scoparia) [1]) | pest or weed control at 125 g/ha [3] | pest or weed control at 125 g/ha [4] | pest or weed control at 250 g/ha [5] | pest or weed control at 250 g/ha (rice (Oryra sativa)) | pest or weed control at 125 g/ha [8] | pest or weed control at 500 g/ha [8] | pest or weed control at 125 g/ha (Kochia (Kochia scoparia) [9]) | pest or weed control at 125 g/ha [11] | pest or weed control at 500 g/ha [11] | pest or weed control at 125 g/ha [13]

Cc1ccc([C@H]2CNC(=S)[C@@H]2C(=O)Nc2cccc(F)c2F)cc1C [Compound 765]
40%: pest or weed control at 125 g/ha [4] | pest or weed control at 250 g/ha [6]
100%: pest or weed control at 250 g/ha [7] | pest or weed control at 125 g/ha [12] | pest or weed control at 500 g/ha [12]
20%: pest or weed control at 250 g/ha (rice (Oryra sativa))
0%: pest or weed control at 125 g/ha (Kochia (Kochia scoparia) [1]) | pest or weed control at 125 g/ha [2] | pest or weed control at 125 g/ha [3] | pest or weed control at 250 g/ha [5] | pest or weed control at 125 g/ha [8] | pest or weed control at 125 g/ha (Kochia (Kochia scoparia) [9]) | pest or weed control at 500 g/ha (Kochia (Kochia scoparia) [9]) | pest or weed control at 125 g/ha [11] | pest or weed control at 500 g/ha [11] | pest or weed control at 125 g/ha [13]
80%: pest or weed control at 500 g/ha [10]
30%: pest or weed control at 500 g/ha [8] | pest or weed control at 125 g/ha [10]

COc1cc([C@H]2CN(C)C(=O)[C@@H]2C(=O)Nc2ccccc2SC)ccc1C(F)(F)F [Compound 769]
15%: pest or weed control at 250 g/ha (rice (Oryra sativa))
100%: pest or weed control at 500 g/ha [10] | pest or weed control at 500 g/ha [12]
0%: pest or weed control at 125 g/ha (Kochia (Kochia scoparia) [1]) | pest or weed control at 125 g/ha [3] | pest or weed control at 250 g/ha [5] | pest or weed control at 250 g/ha [6] | pest or weed control at 125 g/ha [13]
70%: pest or weed control at 125 g/ha [2] | pest or weed control at 500 g/ha [8] | pest or weed control at 500 g/ha (Kochia (Kochia scoparia) [9]) | pest or weed control at 125 g/ha [12]
90%: pest or weed control at 125 g/ha [10]
80%: pest or weed control at 250 g/ha [7] | pest or weed control at 500 g/ha [11]
30%: pest or weed control at 125 g/ha [4] | pest or weed control at 125 g/ha [8] | pest or weed control at 125 g/ha (Kochia (Kochia scoparia) [9]) | pest or weed control at 125 g/ha [11]

Cc1ccc(NC(=O)[C@H]2C(=O)N(C)C[C@@H]2c2cc(F)cc(F)c2)c(F)c1F [Compound 771]
90%: pest or weed control at 125 g/ha [2] | pest or weed control at 250 g/ha [6] | pest or weed control at 125 g/ha [10] | pest or weed control at 500 g/ha [10] | pest or weed control at 125 g/ha [12] | pest or weed control at 500 g/ha [12]
80%: pest or weed control at 500 g/ha (Kochia (Kochia scoparia) [9])
40%: pest or weed control at 125 g/ha [13]
0%: pest or weed control at 125 g/ha [3] | pest or weed control at 250 g/ha [5] | pest or weed control at 125 g/ha [8] | pest or weed control at 125 g/ha [11] | pest or weed control at 500 g/ha [11]
50%: pest or weed control at 125 g/ha (Kochia (Kochia scoparia) [1]) | pest or weed control at 500 g/ha [8] | pest or weed control at 125 g/ha (Kochia (Kochia scoparia) [9])
100%: pest or weed control at 250 g/ha [7]
20%: pest or weed control at 125 g/ha [4] | pest or weed control at 250 g/ha (rice (Oryra sativa))
